In the experiment the test system is ascitic form of a transplantable mouse liver tumor (TLT). In words: Survival (increase of life span) of mice bearing the intraperitoneally transplanted ascitic TLT tumor. It is filed as in vivo, NMRI male mice. The settings on record: for therapeutic effect (character of chemotherapy potentiating effect): cytotoxic drug combined with dietary FOS or inulin. From the text: Viable, neoplastic cells (10^6) from the ascitic form of a transplantable mouse liver tumor (TLT) (Taper, 1966 and Cappucino, 1966) were intraperitoneally transplanted into 12 per group young adult NMRI male mice weighing about 30 g, supplied by "Animalerie Facultaire", UCL, Brussels. Mice of the experimental groups were fed with a basal diet supplemented with 15 % FOS or inulin starting 7 days before tumor transplantation up to the end of the experiment. Control animals received the basal diet for experimental animals AO4 furnished by UAR, Villemoisson sur Orge, France, and water ad libitum.
A single, subtherapeutic dose of cytotoxic drugs was intraperitoneally injected 48 hours after intraperitoneal TLT tumor transplantation at following doses: endoxan 80 mg/kg; adriamycin 0.1 mg/kg; oncovin 0.5 mg/kg and 5-fluorouracil 40 mg/kg.
The criteria for the evaluation of results were the mortality rates expressed by mean survival time (MST) and the percentage of increase of life span (ILS) in experimental groups compared with the controls, calculated according to the NCI instructions (Geron et al., 1972). The results of each experiment were confirmed by another experiment performed at another time and were cumulatively calculated (as presented in Table 1). The results concerning the survival rates of mice bearing the ascitic form of a TLT tumor, observed in 2 separately performed experiments on each type of anti-cancer drug (12 mice per group), are cumulatively presented in Table 1 below.
In a further experiment, carried out in a similar manner as the previous experiment, the effects were examined of a composition according to the invention, containing a combination of the anti-metabolite anti-cancer drug methotrexate and inulin or FOS, in comparison with the effects of the single components. The effects were evaluated via the survival criteria of N.M.RI mice bearing ascitic TLT tumors, treated with a single i.p. dose of 20 mg/kg methotrexate (10 investigated mice in each group) and the results are presented in Table 2 below.

[1] abbreviates: increase of life span vs own untreated control group, 15 % FOS or inulin in diet from 7 days before transplantation, single i.p. dose 48 hours after transplantation: endoxan 80 mg/kg, adriamycin 0.1 mg/kg, oncovin 0.5 mg/kg, 5-fluorouracil 40 mg/kg, 2 experiments cumulated.

As for `O=P1(N(CCCl)CCCl)NCCCO1` (stereo not drawn) [Endoxan, cyclophosphamide], the “therapeutic effect (character of chemotherapy potentiating effect)” value (shortened to “therapeutic effect”) is reported as “additive”. Under setting [1], the “ILS (%)” value was 0%.

Take `O=c1[nH]cc(F)c(=O)[nH]1` [5-Fluorouracil, 5-fluorouracil]: the “therapeutic effect” value is recorded as “synergistic”. In addition, the “ILS (%)” value under setting [1] came out at 18.75%.

As to `CC[C@]1(O)C[C@H]2CN(CCc3c([nH]c4ccccc34)[C@@](C(=O)OC)(c3cc4c(cc3OC)N(C=O)[C@H]3[C@@](O)(C(=O)OC)[C@H](OC(C)=O)[C@]5(CC)C=CCN6CC[C@]43[C@@H]65)C2)C1` [Oncovin, vincristine sulphate], the “therapeutic effect” value is listed as “additive”. For the same molecule, the “ILS (%)” value under setting [1] is reported as 33.33%.

Take `COc1cccc2c1C(=O)c1c(O)c3c(c(O)c1C2=O)C[C@@](O)(C(=O)CO)C[C@@H]3O[C@H]1C[C@H](N)[C@H](O)[C@H](C)O1` [Adriamycin, adriamycin]: the “therapeutic effect” value is listed as “additive”. Moreover, the “ILS (%)” value under setting [1] is listed as 14.7%.

For the molecule `CN(Cc1cnc2nc(N)nc(N)c2n1)c1ccc(C(=O)N[C@@H](CCC(=O)O)C(=O)O)cc1` [methotrexate], the “ILS (%)” value (Table 2, methotrexate single i.p. dose of 20 mg/kg, dietary FOS or inulin, 10 mice in each group) is on record as 2%.

The values above are taken from patent publication EP1079840B1, “SYNERGISTIC COMPOSITION OF INULIN AND AN ANTI-CANCER DRUG FOR USE IN THE TREATMENT OF CANCER” (Tiense Suikerraffinaderij N.V. (Raffinerie Tirlemontoise …, priority 1998, dated 1999).
